In article PMC11036078, “PD‐1 inhibition with retifanlimab and/or arginase inhibition with INCB001158 in Japanese patients with solid tumors: A phase I study” (Cancer Medicine, 2024):
Values joined by “and” are separate entries in the source; they are usually repeats but may differ in a detail not shown here. Equal entries are not always repeated. Where two headings read alike, the source gives them in different places.

How the values were obtained:
[1] = test system: T‐cell proliferation; parameters: method as in PMID 29254508; settings: preclinical; cited from earlier work
[2] = test system: arginase; assay: Pharmacodynamics: plasma arginine levels; type: in vivo, Japanese patients; settings: change from baseline
Description: Pharmacodynamics of INCB001158 alone or in combination were assessed as an exploratory objective. Urine was collected at regular intervals from patients in the INCB001158 monotherapy and combination groups to assess urinary orotic acid levels and evaluate whether INCB001158 inhibits the urea cycle. Plasma samples from patients in these groups were also assessed for ammonia, arginine, and ornithine levels.

[3] = test system: arginase; parameters: method as in earlier work; settings: phase I/II studies; cited from earlier work
[4] = Safety and tolerability (TEAEs, DLTs, irAEs; NCI CTCAE v5.0), phase Ib POD1UM-104; settings: in vivo
Description: This was a phase Ib, open‐label, multicenter study (POD1UM‐104 [NCT03910530]). The study was conducted in 2 parts. In Part 1, patients received single‐agent retifanlimab or escalating doses of single‐agent INCB001158 to confirm the RP2D of each agent. Single‐agent dosing was performed to comply with local regulations. In Part 2, patients received the combination of retifanlimab and INCB001158 at their respective RP2D determined in Part 1, to further explore safety and preliminary evidence of clinical activity. Treatment cycles in Part 1 and Part 2 were 28 days, and patients could receive treatment for up to 2 years, or until disease progression, unacceptable toxicity, death, or patient withdrawal.
In Part 1, 6 patients received retifanlimab 500 mg every 4 weeks (Q4W), given as an i.v. infusion over 60 min; this dose was based on the RP2D determined from global studies. The starting dose of INCB001158 was 75 mg taken orally twice daily (BID). Dose escalation of INCB001158 followed a standard 3 + 3 design; if 75 mg BID was deemed to be tolerable in at least 3 patients, a 100‐mg BID dose level cohort comprising at least 3 patients would be opened.
DLTs were assessed by the investigator according to the National Cancer Institute (NCI) Common Terminology Criteria for Adverse Events (CTCAE) v5.0 criteria (Table S1).
The primary endpoints of the study were safety, tolerability, DLTs, and RP2D of single‐agent retifanlimab, INCB001158, and the combination. Adverse events (AEs) were graded by NCI CTCAE v5.0, and immune‐related adverse events (irAEs) were monitored as AEs of special interest. Physical examinations, monitoring of vital signs, electrocardiograms, and laboratory assessments were conducted throughout the study.
(§1) Safety and efficacy analyses were conducted in the full analysis set, which comprised all enrolled patients who received at least 1 dose of the study drug.
(§2) Safety data were summarized using descriptive statistics. PK parameters were summarized by study part, treatment regimen, cohort, dose levels, and/or visit. ORR and DCR were reported with their exact 95% confidence intervals (CIs); DOR was based on the Kaplan–Meier estimate of the distribution function, and the estimated median along with 95% CI was reported. Statistical analyses were performed using SAS® software v9.4 or later (SAS Institute Inc., Cary, NC, USA).

[5] = test system: tumor growth; parameters: method as in PMID 29254508; settings: preclinical; cited from earlier work
[6] = test system: advanced solid tumors; assay: Clinical activity by investigator per RECIST v1.1 (ORR, DCR, DOR); type: in vivo, Japanese patients; settings: n = 6 per group
Description: Preliminary clinical activity of single‐agent retifanlimab and INCB001158, and the combination, was an additional secondary endpoint. Diagnostic imaging was performed by computed tomography scan every 8 ± 1 weeks. Clinical activity was assessed by measuring overall response rate (ORR), defined as the percentage of patients experiencing a complete or partial response (CR or PR) as determined by the investigator according to Response Evaluation Criteria in Solid Tumors (RECIST) v1.1; disease control rate (DCR), defined as the percentage of patients maintaining either an objective response or stable disease (SD) for at least 12 weeks per RECIST v1.1; and duration of response (DOR), defined as the time from first observed response until onset of progressive disease (PD) as determined by the investigator according to RECIST v1.1 or death from any cause.
as §1, §2

[7] = test system: advanced/metastatic solid tumours; settings: cited from earlier work
[8] = INCB001158 monotherapy, 33 patients with microsatellite‐stable metastatic colorectal cancer
[9] = in combination with gemcitabine/cisplatin, phase I/II, advanced biliary tract cancer
[10] = in combination with pembrolizumab, 43 patients with microsatellite‐stable colorectal cancer

For `C[C@H](N)C(=O)N1C[C@H](CCCB(O)O)[C@](N)(C(=O)O)C1` [INCB001158], the “T‐cell proliferation in the presence of inhibitory granulocytes” value [1] is given as “restored T‐cell proliferation”, the Plasma arginine levels [2] is given as “Immediate and consistent increases” and the Plasma arginine levels [3] is given as “increase in plasma arginine levels”. The “Serious TEAEs (terms)” value ([4]; human) was “grade 2 inguinal hernia (n = 1)”, the “TEAE: ALT increased” value ([4]; human) was 0 n (%) and the “TEAE: AST increased” value ([4]; human) was 0 n (%). The “TEAE: Amylase increased” value ([4]; human) was 0 n (%), the “TEAE: Anemia” value ([4]; human) was 1 (16.7) n (%) and the “TEAE: Blood creatinine increased” value ([4]; human) was 0 n (%). The “TEAE: Diarrhea” value ([4]; human) was 1 (16.7) n (%), the “TEAE: Nausea” value ([4]; human) was 0 n (%) and the “TEAE: Pruritus” value ([4]; human) was 0 n (%). The “TEAE: Pyrexia” value ([4]; human) was 0 n (%), the “TEAE: Rash” value ([4]; human) was 0 n (%) and the “TRAEs reported (terms)” value ([4]; human) was “diarrhea (n = 1) and anemia and hyperbilirubinemia (n = 1)”. The “Treatment discontinuation because of a TEAE” value ([4]; human) was 0 n (%), the “Grade 3 AEs reported but not occurring during the treatment window” value [4] was “anemia” and the “Antitumor activity in mouse models” value [5] was “demonstrated antitumor activity”. The “Tumor growth when combined with ICB” value [5] was “synergistically inhibited tumor growth”, the “Best overall response: Complete response” value ([6]; RECIST v1.1, investigator) was 0 n (%) and the “Best overall response: Partial response” value ([6]; RECIST v1.1, investigator) was 0 n (%). The “Best overall response: Progressive disease” value ([6]; RECIST v1.1, investigator) was 3 (50.0) n (%), the “Best overall response: Stable disease” value ([6]; RECIST v1.1, investigator) was 3 n (%) and 3 (50.0) n (%) and the Objective response rate ([6]; RECIST v1.1, investigator) was 0 [0–45.9] n (%) [95% CI]. For the same compound, the “DCR” value ([6]; RECIST v1.1, 95% CI, 11.8–88.2) was 50%, the DCR [7, 8] was 27% and the “Number of PRs” value [7, 8] was 1. For the same compound, the ORR [7, 9] was 24%, the “Patients with SD” value [7, 9] was 42% and the DCR [7, 10] was 30%. The “Number of PRs” value [7, 10] was 3.
